Measurements: patent US12202835B2, “Substituted aromatic ring-linked dioxinoquinazolines and dioxinoquinolines as kinase inhibitors” (BEIJING SCITECH-MQ PHARMACEUTICALS LIMITED, priority 2018, dated 2025)

Target: c-MET kinase (Homo sapiens (Human), UniProt P08581)
Assay: Assay of small molecular compounds for inhibiting the activity of c-MET kinase (LANCE TR-FRET)
Type: biochemical
Settings: read-out: CMET IC50
Outline: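 LANCE TR-FRET assay with c-MET at 1 nM final after a 5 min room-temperature preincubation with compound (11-point, 3-fold series, 2500–0.042 nM final, 4% DMSO). ULight-JAK-1 (Tyr1023) peptide (100 nM final) and ATP (10 μM final) reacted 60 min in the dark. Inhibition was taken relative to controls, then IC50 fitted.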

Sequence of c-MET kinase (P08581 25-1390): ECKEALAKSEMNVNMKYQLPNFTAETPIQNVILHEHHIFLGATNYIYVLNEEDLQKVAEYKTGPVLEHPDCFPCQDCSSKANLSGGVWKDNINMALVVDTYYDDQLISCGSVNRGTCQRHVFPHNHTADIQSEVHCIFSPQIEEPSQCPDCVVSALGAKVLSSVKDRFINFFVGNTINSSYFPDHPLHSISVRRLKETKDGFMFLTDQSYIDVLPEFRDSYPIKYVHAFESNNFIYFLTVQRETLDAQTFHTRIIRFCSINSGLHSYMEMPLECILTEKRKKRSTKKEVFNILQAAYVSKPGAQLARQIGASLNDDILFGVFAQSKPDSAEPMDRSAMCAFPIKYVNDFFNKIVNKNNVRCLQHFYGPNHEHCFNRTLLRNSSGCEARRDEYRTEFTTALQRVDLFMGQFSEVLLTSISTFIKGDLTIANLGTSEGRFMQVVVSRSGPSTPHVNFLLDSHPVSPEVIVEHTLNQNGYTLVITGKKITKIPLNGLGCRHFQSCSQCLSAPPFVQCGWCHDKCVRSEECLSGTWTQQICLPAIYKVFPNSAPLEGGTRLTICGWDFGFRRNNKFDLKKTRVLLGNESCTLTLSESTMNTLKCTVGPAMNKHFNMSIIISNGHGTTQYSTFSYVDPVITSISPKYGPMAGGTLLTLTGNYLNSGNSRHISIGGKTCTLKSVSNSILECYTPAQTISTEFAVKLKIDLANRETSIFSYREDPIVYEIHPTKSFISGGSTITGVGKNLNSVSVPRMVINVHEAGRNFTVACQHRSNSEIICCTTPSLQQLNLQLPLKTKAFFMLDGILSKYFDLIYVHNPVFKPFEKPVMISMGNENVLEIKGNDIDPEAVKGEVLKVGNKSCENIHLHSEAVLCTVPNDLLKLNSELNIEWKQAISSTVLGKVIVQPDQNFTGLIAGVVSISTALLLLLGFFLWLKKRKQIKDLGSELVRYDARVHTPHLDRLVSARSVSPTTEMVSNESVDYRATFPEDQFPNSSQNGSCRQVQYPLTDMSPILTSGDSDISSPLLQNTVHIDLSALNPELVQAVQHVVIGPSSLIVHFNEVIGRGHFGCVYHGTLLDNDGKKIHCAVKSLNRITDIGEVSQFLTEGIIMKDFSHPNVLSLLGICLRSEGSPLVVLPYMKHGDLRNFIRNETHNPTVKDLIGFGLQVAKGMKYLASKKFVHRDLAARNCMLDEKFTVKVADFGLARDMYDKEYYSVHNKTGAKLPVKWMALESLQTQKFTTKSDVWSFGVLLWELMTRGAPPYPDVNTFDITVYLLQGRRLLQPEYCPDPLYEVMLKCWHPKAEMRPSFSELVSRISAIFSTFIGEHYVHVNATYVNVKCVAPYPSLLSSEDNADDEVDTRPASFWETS

Row | IC50 | SMILES
1 | ≤ 0.05 µM | COc1cc2ncnc(Oc3ccc(NC(=O)c4cccn(-c5ccc(F)cc5)c4=O)cc3F)c2c2c1OCCO2 [Example 1, N-(3-fluoro-4-((5-methoxy-2,3-dihydro-[1,4]dioxino[2,3-f]quinazolin-10-yl)oxy)phenyl)-1-(4-fluorophenyl)-2-oxo-1,2-dihydropyridine-3-carboxamide]
2 | ≤ 0.05 µM | COc1cc2ncnc(Oc3ccc(NC(=O)c4c(OC)ccn(-c5ccc(F)cc5)c4=O)cc3F)c2c2c1OCCO2 [Example 2, N-(3-fluoro-4-((5-methoxy-2,3-dihydro-[1,4]dioxino[2,3-f]quinazolin-10-yl)oxy)phenyl)-1-(4-fluorophenyl)-4-methoxy-2-oxo-1,2-dihydropyridine-3-carboxamide]
3 | ≤ 0.05 µM | CCOc1ccn(-c2ccc(F)cc2)c(=O)c1C(=O)Nc1ccc(Oc2ncnc3cc(OC)c4c(c23)OCCO4)c(F)c1 [Example 3, N-(3-fluoro-4-((5-methoxy-2,3-dihydro-[1,4]dioxino[2,3-f]quinazolin-10-yl)oxy)phenyl)-1-(4-fluorophenyl)-4-ethoxy-2-oxo-1,2-dihydropyridine-3-carboxamide]
4 | ≤ 0.05 µM | COc1cn(-c2ccc(F)cc2C)nc1C(=O)Nc1ccc(Oc2ncnc3cc(OCCCN4CCOCC4)c4c(c23)OCCO4)c(F)c1 [Example 11, 1-(4-fluoro-2-methylphenyl)-N-(3-fluoro-4-((5-(3-morpholinopropoxy)-2,3-dihydro-[1,4]dioxino[2,3-f]quinazolin-10-yl)oxy)phenyl)-4-methoxy-1H-pyrazole-3-carboxamide]
5 | ≤ 0.05 µM | CCOc1cn(-c2ccc(F)cc2C)nc1C(=O)Nc1ccc(Oc2ncnc3cc(OCCCN4CCOCC4)c4c(c23)OCCO4)c(F)c1 [Example 12, 1-(4-fluoro-2-methylphenyl)-N-(3-fluoro-4-((5-(3-morpholinopropoxy)-2,3-dihydro-[1,4]dioxino[2,3-f]quinazolin-10-yl)oxy)phenyl)-4-ethoxy-1H-pyrazole-3-carboxamide]
6 | ≤ 0.05 µM | COc1cc2nccc(Oc3ccc(NC(=O)c4cn(CCO)c(=O)n(-c5ccc(F)cc5)c4=O)cc3F)c2c2c1OCCO2 [Example 45, N-(3-fluoro-4-((5-methoxy-2,3-dihydro-[1,4]dioxino[2,3-f]quinolin-10-yl)oxy)phenyl)-3-(4-fluorophenyl)-1-(2-hydroxyethyl)-2,4-dioxo-1,2,3,4-tetrahydropyrimidine-5-carboxamide]
7 | ≤ 0.05 µM | CCOc1ccn(-c2ccc(F)cc2)c(=O)c1C(=O)Nc1ccc(Oc2ccnc3cc(OCCCN4CCN(C)CC4)c4c(c23)OCCO4)c(F)c1 [Example 49, N-(3-fluoro-4-((5-(3-(4-methylpiperazin-1-yl)propoxy)-2,3-dihydro-[1,4]dioxino[2,3-f]quinolin-10-yl)oxy)phenyl)-1-(4-fluorophenyl)-4-ethoxy-2-oxo-1,2-dihydropyridine-3-carboxamide]
8 | ≤ 0.05 µM | CCOc1ccn(-c2ccc(F)cc2)c(=O)c1C(=O)Nc1ccc(Oc2ccnc3cc(OCCCN4CCN(C(C)=O)CC4)c4c(c23)OCCO4)c(F)c1 [Example 50, N-(4-((5-(3-(4-acetyl-piperazin-1-yl)propoxy)-2,3-dihydro-[1,4]dioxino[2,3-f]quinolin-10-yl)oxy)-3-fluorophenyl)-4-ethoxy-1-(4-fluorophenyl)-2-oxo-1,2-dihydropyridine-3-carboxamide]
9 | ≤ 0.05 µM | CCOc1ccn(-c2ccc(F)cc2)c(=O)c1C(=O)Nc1ccc(Oc2ccnc3cc(OCCCN4CCS(=O)(=O)CC4)c4c(c23)OCCO4)c(F)c1 [Example 51, N-(4-((5-(3-(1,1-dioxidothiomorpholino)propoxy)-2,3-dihydro-[1,4]dioxino[2,3-f]quinolin-1 0-yl)oxy)-3-fluorophenyl)-4-ethoxy-1-(4-fluorophenyl)-2-oxo-1,2-dihydropyridine-3-carboxamide]
10 | ≤ 0.05 µM | CCOc1ccn(-c2ccc(F)cc2)c(=O)c1C(=O)Nc1ccc(Oc2ccnc3cc(OCCCN4CCCC4)c4c(c23)OCCO4)c(F)c1 [Example 52, N-(4-((5-(3-(pyrrolidin-1-yl)propoxy)-2,3-dihydro-[1,4]dioxino[2,3-f]quinolin-10-yl)oxy)-3-fluorophenyl)-4-ethoxy-1-(4-fluorophenyl)-2-oxo-1,2-dihydropyridine-3-carboxamide]
11 | ≤ 0.05 µM | CCOc1ccn(-c2ccc(F)cc2)c(=O)c1C(=O)Nc1ccc(Oc2ccnc3cc(OCCO)c4c(c23)OCCO4)c(F)c1 [Example 53, N-(4-((5-(2-hydroxyethoxy)-2,3-dihydro-[1,4]dioxino[2,3-f]quinolin-10-yl)oxy)-3-fluorophenyl)-4-ethoxy-1-(4-fluorophenyl)-2-oxo-1,2-dihydropyridine-3-carboxamide]
12 | ≤ 0.05 µM | CCOc1ccn(-c2ccc(F)cc2)c(=O)c1C(=O)Nc1ccc(Oc2ccnc3cc(OCCCO)c4c(c23)OCCO4)c(F)c1 [Example 54, N-(4-((5-(3-hydroxypropoxy)-2,3-dihydro-[1,4]dioxino[2,3-f]quinolin-10-yl)oxy)-3-fluorophenyl)-4-ethoxy-1-(4-fluorophenyl)-2-oxo-1,2-dihydropyridine-3-carboxamide]
13 | ≤ 0.05 µM | CCOc1ccn(-c2ccc(F)cc2)c(=O)c1C(=O)Nc1ccc(Oc2ccnc3cc(OCCCOC)c4c(c23)OCCO4)c(F)c1 [Example 55, N-(4-((5-(3-methoxypropoxy)-2,3-dihydro-[1,4]dioxino[2,3-f]quinolin-10-yl)oxy)-3-fluorophenyl)-4-ethoxy-1-(4-fluorophenyl)-2-oxo-1,2-dihydropyridine-3-carboxamide]
14 | ≤ 0.05 µM | CCOc1ccn(-c2ccc(F)cc2)c(=O)c1C(=O)Nc1ccc(Oc2ccnc3cc(OCC#N)c4c(c23)OCCO4)c(F)c1 [Example 56, N-(4-((5-(cyanomethoxy)-2,3-dihydro-[1,4]dioxino[2,3-f]quinolin-10-yl)oxy)-3-fluorophenyl)-4-ethoxy-1-(4-fluorophenyl)-2-oxo-1,2-dihydropyridine-3-carboxamide]
15 | ≤ 0.05 µM | CCOc1ccn(-c2ccc(F)cc2)c(=O)c1C(=O)Nc1ccc(Oc2ccnc3cc(OCCCC#N)c4c(c23)OCCO4)c(F)c1 [Example 57, N-(4-((5-(3-cyanopropoxy)-2,3-dihydro-[1,4]dioxino[2,3-f]quinolin-10-yl)oxy)-3-fluorophenyl)-4-ethoxy-1-(4-fluorophenyl)-2-oxo-1,2-dihydropyridine-3-carboxamide]
16 | ≤ 0.05 µM | CCOc1ccn(-c2ccc(F)cc2)c(=O)c1C(=O)Nc1ccc(Oc2ccnc3cc(OCC(C)C)c4c(c23)OCCO4)c(F)c1 [Example 58, N-(4-((5-(isobutyloxy)-2,3-dihydro-[1,4]dioxino[2,3-f]quinolin-10-yl)oxy)-3-fluorophenyl)-4-ethoxy-1-(4-fluorophenyl)-2-oxo-1,2-dihydropyridine-3-carboxamide]
17 | ≤ 0.05 µM | CCOc1ccn(-c2ccc(F)cc2)c(=O)c1C(=O)Nc1ccc(Oc2ccnc3cc(OCC4CC4)c4c(c23)OCCO4)c(F)c1 [Example 59, N-(4-((5-(cyclopropylmethoxy)-2,3-dihydro-[1,4]dioxino[2,3-f]quinolin-10-yl)oxy)-3-fluorophenyl)-4-ethoxy-1-(4-fluorophenyl)-2-oxo-1,2-dihydropyridine-3-carboxamide]
18 | ≤ 0.05 µM | CCOc1cc2nccc(Oc3ccc(NC(=O)c4c(OCC)ccn(-c5ccc(F)cc5)c4=O)cc3F)c2c2c1OCCO2 [Example 62, N-(4-((5-ethoxy-2,3-dihydro-[1,4]dioxino[2,3-f]quinolin-10-yl)oxy)-3-fluorophenyl)-4-ethoxy-1-(4-fluorophenyl)-2-oxo-1,2-dihydropyridine-3-carboxamide]
